Test results reported in publication PMC12042267, “Expanding the Family of Monosubstituted 15-Membered Pyridine-Based Macrocyclic Ligands for Mn(II) Complexation in the Context of MRI” (Inorganic Chemistry, 2025).

Tests used:
[1] = Dissociation kinetics of Mn(II) complexes, transmetalation with Zn(II) (T2 relaxation); format: physicochemical
Method: The transmetalation reaction of MnL2 and MnL3 (1.4 mM) was monitored in the presence of 10, 20, 30, and 40 mol equiv of Zn(II) ions, by measuring water proton T2 relaxation times (60 MHz) as a function of time at 25 °C and in 0.15 M NaCl, in the pH range 4.9–6.0 (4.9, 5.0, 5.2, 5.5, and 6.0). To control pH, 50 mM N-methyl-piperazine (pH 4.9–5.5) or 50 mM MES (2-(4-morpholino)ethane-sulfonic acid) buffer (pH 5.7–6.0) was used. Transmetalation of MnL2 (0.3 mM) was also investigated in the presence of 10, 20, 30, and 40 mol equiv of Cu(II) ions, by monitoring the UV–vis absorbance at 274.0 nm as a function of time at 25 °C and in 0.15 M NaCl, in the pH range 4.7–5.0 (in 75 mM 1,4-dimethyl piperazine (DMP) buffer). No oxidation of the samples was observed. The program OriginPro 9 was used for the fitting of experimental data.
The dissociation kinetics was followed through monitoring Mn(II) release by water proton T2 measurements, at pH […], in the presence of 10- to 40-fold excess of Zn(II) and through UV–vis measurements in the presence of 10- to 40-fold excess of Cu(II) at pH 4.7–5.0 (only for MnL2). The observed dissociation rate constants, kobs, increase with increasing H^+ ion concentration (Figures 4, left and S20). They remain independent of Zn(II) concentration (Figures S18 and S19), but do show dependence on Cu(II) concentration (Figure S21).
In excess of the exchanging metal ion, the reaction is of pseudo-first order, and the rate is proportional to the total MnL2 or MnL3 concentration (eq 1), where kobs is the pseudo-first-order rate constant. [drawing 4] 1 In general, different dissociation pathways can coexist, implying the participation of protons and/or the exchanging metal ion,[47] as illustrated in Figure 5.
Based on this scheme, the overall rate for either Zn(II) or Cu(II) transmetalation can be given by eq 2, where M = Zn^2+ or Cu^2+ (for clarity, charges of the complexes are omitted). [drawing 5] 2 Here, the first and second terms correspond to the spontaneous dissociation of the nonprotonated and the monoprotonated complexes, respectively, the third term describes the proton-assisted dissociation of the monoprotonated complex, and the last two terms refer to the spontaneous dissociation of the dinuclear complex and metal-assisted dissociation of the monoprotonated MnL2 or MnL3 complex. [MnL]tot describes the total concentration of Mn(II) chelates ([MnL]tot = [MnL] + [MnHL] + [ZnLMn]). Since no obvious Zn(II) dependence (for any of the two systems) was observed, only the spontaneous and proton-assisted dissociation pathways were taken into consideration. Consequently, the observed rate constants can be expressed as in eq 3 with k0 = kMnL, k1 = kMnHL·KMnHL, and k2 = ^HkMnHL·KMnHL. [drawing 6] 3 The kobs rate constants were fitted to eq 3, and the calculated parameters are listed in Table 5 for the Zn(II) exchange. During the fitting procedure, KMnHL was fixed to the value obtained from the pH-potentiometric titrations.

[2] = 1H relaxivity (relaxometry, NMRD profiles); format: physicochemical; conditions: for r1 (relaxivity): 20 MHz, 0.47 T
Method: At 60 MHz, ^1H longitudinal (T1) and transverse (T2) relaxation times were measured with a Bruker Minispec MQ-60 NMR analyzer. The temperature was set to 25.0 °C and controlled with a circulating water bath. T1 and T2 values were determined, respectively, by using the inversion recovery method (180−τ–90°) and the Carl–Purcell–Meiboom–Gill (CPMG) spin–echo pulse sequence. […]
^1H NMRD profiles on aqueous solutions of MnL2 (cMn2+ = 0.98 mM; pH = 7.22) and MnL3 (cMn2+ = 0.96 mM; pH = 7.20) were recorded at 25 and 37 °C on a SMARTracer Fast Field Cycling NMR relaxometer (Stelar; 0.00024–0.24 T, 0.01–10 MHz ^1H Larmor frequency) and a WP80 NMR electromagnet adapted to variable-field measurements (Bruker; 0.47–1.88 T, 20–80 MHz ^1H Larmor frequency). The temperature was maintained by a gas flow and monitored by a VTC91 temperature control unit based on previous calibration with a Pt resistance temperature probe.

[3] = fixed during the fitting procedure ref 28; cited from earlier work
[4] = Zn(II) transmetalation, 25 °C, 0.15 M NaCl, pH 4.9–6.0

| dissociation half-life t1/2 ([1]; Mn(II) complex, t1/2 = ln 2/kobs calculated for pH 7.4, Zn(II)) | Structure (SMILES) | k0 (spontaneous dissociation of the nonprotonated complex) [1, 4] | k2 (proton-assisted dissociation of the monoprotonated complex) [1, 4] | relaxivity (constant between pH 7 and 11) ([2]; 1.41 T and 25 °C, pH 7 to 11) | r1 (relaxivity) ([2]; 25 °C) | r1 (relaxivity) ([2]; 25 °C, listed as [Mn(L2)(H2O)]^+) | r1 (relaxivity) ([2]; 37 °C) | AO/ℏ (scalar coupling constant) [3] | r1 (relaxivity) ([2]; 25 °C, listed as [Mn(L3)(H2O)]^+) |
| --- | --- | --- | --- | --- | --- | --- | --- | --- | --- |
| 10.4 min | O.[Mn+2].c1ccc(CN2CCOCCOCCNCc3cccc(n3)C2)nc1 [MnL2] | (1.1 ± 0.3) × 10^–3 s^–1 | (4.5 ± 0.8) × 10^7 M^–2 s^–1 | 2.62 mM^–1 s^–1 | ~2.5 mM^–1 s^–1 | 2.49 mM^–1 s^–1 | 1.98 mM^–1 s^–1 | 38.6 ^e 10^6 rad s^–1 |  |
|  | O.[Mn+2].c1cc2nc(c1)CN(Cc1nc3ccccc3[nH]1)CCOCCOCCNC2 [MnL3] | (1.9 ± 0.3) × 10^–3 s^–1 |  |  | ~2.5 mM^–1 s^–1 |  | 2.24 mM^–1 s^–1 | 38.6 ^e 10^6 rad s^–1 | 2.77 mM^–1 s^–1 |
